Reference: patent US11390868B2, “Treatment of filaggrin (FLG) related diseases by modulation of FLG expression and activity” (CuRNA, Inc., priority 2009, dated 2022)
Where a name gives a salt, the structure may show the parent alone. Read-outs that look alike come from different tables or passages of the source.

Experiments:
[1] = tested on: patients with severe head trauma; details: peripheral vein injection plus standard procedures; cited from earlier work
[2] = cited from earlier work; for solubility in ethanol / alcohol: anhydrous ethanol or alcohol
[3] = cited from earlier work
[4] = tested on: FLG Natural Antisense Transcripts in primary keratinocytes; test: Real time PCR of FLG Natural Antisense Transcripts after treatment of primary keratinocytes with small compounds; type: cell-based; details: small compounds 1 uM, dosed twice, 24 h after second dosing, vs vehicle control (FIG. 5)
Description: Primary keratinocytes (from Promocell) were grown in a growth media (Keratinocyte Growth Media, Promocell cat #C-2011) at 37° C. with 5% CO2. One day before the experiment the cells were replated at approximately 5×10^4/ml (or about ⅓ dilution from 90% confluency) into 24-well collagen-coated plates (Beckton Dickinson BioCoat plates cat #35 6408) and incubated at 37° C. and 5% CO2 overnight. On the day of the experiment the media in the 24-well plates was changed to 1 ml fresh growth media. Small compounds were diluted in DMSO to the concentration of 1000 uM. On the day of the experiment this solution was diluted 1:100 in fresh growth media. Pure DMSO was diluted in media at the same ratio […] to treat vehicle control samples. To dose one well, […] of the compound or pure DMSO solution was added directly to well of a 24-well plate. The final concentration of compounds was 1 uM. Dosing volume was adjusted if a different concentration of compound was desired. After dosing the plates were incubated overnight at 37° C., 5% CO2. 24 h after addition of small compounds the media was replaced with fresh growth media and the dosing was repeated as described above. 24 h after second dosing RNA was extracted from the cells using SV Total RNA Isolation System from Promega (cat #Z3105) following the manufacturers' instructions. 600 ng of total RNA was added to the reverse transcription reaction performed using High Capacity cDNA kit from Applied Biosystems (cat #4368813) as described in the manufacturer's protocol. The cDNA from this reverse transcription reaction was used to monitor gene expression by real time PCR using BI Taqman Gene Expression Mix (cat #4369510) and primers/probes designed by AB (for example, assay ID #Hs00856927_gl for FLG). The following PCR cycle was used: 50° C. for 2 min, 95° C. for 10 min, 40 cycles of (95° C. for 15 seconds, 60° C. for […]) using StepOne thermal cycler (ABI). […] Fold change in gene expression after treatment with small compounds was calculated based on the difference in 18S-normalized dCt values between treated and mock-transfected samples.

[5] = cited from earlier work; remark: listed apart in the source
TNF-alpha = details: several case studies and a pilot study; cited from earlier work

COCCOC(=O)C1=C(C)NC(C)=C(C(=O)OC(C)C)C1c1cccc([N+](=O)[O-])c1 (stereo not drawn) [nimodipine, isopropyl 2-methoxyethyl 1,4-dihydro-2,6-dimethyl-4-(m-nitrophenyl)-3,5-pyridinedicarboxylate]
Glasgow outcome score values [1]: higher
cerebral metabolism [1]: improved
cerebral perfusion pressure [1]: significantly higher
intracranial pressure [1]: lower
jugular glucose [1]: lower
jugular lactate [1]: lower
jugular venous oxygen saturation [1]: significantly higher

CCc1ccc(CCOc2ccc(CC3SC(=O)NC3=O)cc2)nc1 (racemic) [Pioglitazone hydrochloride, [(±)-5-[[4-[2-(5-ethyl-2-pyridinyl)ethoxy]phenyl]methyl]-2,4-]thiazolidinedione monohydrochloride]
solubility in N,N-dimethylformamide ([2]; N,N-dimethylformamide): soluble
solubility in acetone [2]: very slightly soluble
solubility in acetonitrile ([2]; acetonitrile): very slightly soluble
solubility in ethanol / alcohol [2]: slightly soluble
solubility in ether ([2]; ether): insoluble
solubility in water [2]: practically insoluble

CC1(C)O[C@@H]2[C@@H](CO[C@@]3(COS(N)(=O)=O)OC(C)(C)O[C@@H]23)O1 [Topiramate, 2,3:4,5-Di-O-isopropylidene-β-D-fructopyranose sulfamate]
solubility in acetone [2]: freely soluble
solubility in alkaline solutions ([2]; alkaline solutions containing sodium hydroxide or sodium phosphate, pH of 9 to 10): most soluble
solubility in chloroform [2]: freely soluble
solubility in dimethyl sulfoxide ([2]; dimethyl sulfoxide): freely soluble
solubility in ethanol / alcohol [2]: freely soluble
pH of saturated solution [3]: 6.3
levels of FLG Natural Antisense Transcripts [4]: significantly decreased

COC(=O)C1=C(C)NC(C)=C(C(=O)O[C@@H]2CCCN(Cc3ccccc3)C2)[C@@H]1c1cccc([N+](=O)[O-])c1.Cl (relative stereo) [Bendipine, (4R)-rel-1,4-Dihydro-2,6-dimethyl-4-(3-nitrophenyl)-3,5-pyridinedicarboxylic acid 3-methyl 5-[(3R)-1-(phenylmethyl)-3-piperidinyl]ester hydrochloride]
levels of FLG Natural Antisense Transcripts [4]: significantly decreased

CN1C(C(=O)Nc2ccccn2)=C(O)c2ccccc2S1(=O)=O [Piroxicam, 4-hydroxyl-2-methyl-N-2-pyridinyl-2H-1,2,-benzothiazine-3-carboxamide 1,1-dioxide]
solubility in aqueous solutions ([2]; aqueous solutions): slightly soluble
solubility in dilute acid ([2]; dilute acid): sparingly soluble
solubility in ethanol / alcohol [2]: slightly soluble
solubility in most organic solvents ([2]; most organic solvents): sparingly soluble
solubility in water [2]: sparingly soluble
pKa of weak basic pyridyl nitrogen ([5]; pyridyl nitrogen): 1.8

CC(NC(C)(C)C)C(=O)c1cccc(Cl)c1.Cl (racemic) [Bupropion, (±)-1-(3-chlorophenyl)-2-[(1,1-dimethylethyl)amino]-1-propanone hydrochloride]
solubility in water [2]: highly soluble
levels of FLG Natural Antisense Transcripts [4]: significantly decreased
level of inflammatory mediator TNF-alpha (TNF-alpha): lowers

COC(=O)C1=C(C)NC(C)=C(C(=O)OC(C)C)C1c1cccc2nonc12 (stereo not drawn) [Isradipine, 3,5-Pyridinedicarboxylic acid, 4-(4-benzofurazanyl)-1,4-dihydro-2,6-dimethyl-, methyl 1-methylethyl ester]
solubility in acetone [2]: freely soluble
solubility in chloroform [2]: freely soluble
solubility in ethanol / alcohol [2]: soluble
solubility in methylene chloride ([2]; methylene chloride): freely soluble
solubility in water ([2]; 37° C.): < 0.01 mg/mL
solubility in water [2]: practically insoluble

O=C([O-])CCc1nc(-c2ccccc2)c(-c2ccccc2)o1.[K+] [Oxaprozin potassium, 4,5-diphenyl-2-oxazolepropionic acid, potassium salt]
solubility in ethanol / alcohol [2]: slightly soluble
solubility in water [2]: very soluble
PK in water ([5]; in water): 9.7
